Entries after “also recorded” stand apart in the source; their conditions may differ. Where two headings read alike, the source gives them in different places.
What was measured:
[1] = system: neonatal rat ventricular myocytes (NRVMs); assay: Myocyte proliferation assay (EdU) in neonatal rat ventricular myocytes; format: cell-based; settings: for activation at 1 µM / activation at 3 µM / activation at 10 µM: Rattus norvegicus, Ventricular myocyte, growth relative to blank myocyte growth without compound added; for activation at 1 µM: 1 uM compound; for activation at 3 µM: 3 uM compound; for activation at 10 µM: 10 uM compound
Protocol: 1. Isolation of and Culture Neonatal Rat Ventricular Myocytes (NRVMs)
Ventricles from neonatal rats were separated from the atria, cut into small pieces (about 2×2 mm^2) and then dissociated in Ca^2+-free HBSS containing 0.125 mg ml-1 trypsin (Gibco), 10 μg ml-1 DNase II (Sigma) and 0.1 mg ml-1 collagenase type IV (Sigma). The digestion was carried out under constant stirring at 37° C. for 5 min. The supernatant was collected with FBS (Gibco) after each digestion period. After digestion, the collected supernatant was centrifuged at 1000 g for 10 min at room temperature, and then cell pellets were resuspended in DMEM (Gibco) supplemented with 10% FBS and with 100 uM 5-bromo-2′-deoxyuridine (Sigma). The resuspended cells were passed through a cell strainer ([…], BD Falcon) and seeded onto 100-mm plastic dishes for 2 h at 37° C. in a 5% CO2 to remove fibroblasts, the supernatant was then collected and plated onto 1% gelatin (Sigma)-coated dishes. 24 h after the seeding, the medium was changed to DMEM (Gibco) containing 2% FBS (Gibco), 1% insulin-transferrin-selenium (ITS; Gibco), 1% Penicillin-Streptomycin (Gibco). After 24 hours of low serum culture, remove the medium with DMEM (Gibco) containing 6% FBS (Gibco), 1% insulin-transferrin-selenium (ITS; Gibco), 1% Penicillin-Streptomycin (Gibco), different concentrations of compounds (the compounds were pre-diluted in the medium and the drug concentration was 10 uM, 3 uM, 1 uM, fully mixed). After 36 h add Edu substrate (Invitrogen) according to the manufacturer's guidelines, and then after 12 h cell can be used.
2.1. Immobilization: Remove the medium and fix the cells with […] in 200 ul (whichever is covered) for 15 min and wash the cells twice with 500 ul of PBS for 5 min each time.
2.2. Broken membrane: Add 200 ul of 0.3% Triton-X 100 (diluted in PBS) to each well, incubate for 10-15 min at room temperature (the time should not be too long), and wash the cells twice with 500 ul of PBS for 5 min each time.
2.3. Blocking: Add 200 ul of 10% normal goat serum (diluted with 0.1% PBST) to each well, incubate for 1 h at room temperature, and wash twice with 500 ul of 0.1% PBST for 5 min each time.
2.4. Primary antibody: dilute the primary antibody (abcam, ab8295) to blocking solution at a ratio of 1:200, add 100 ul per well, incubate for 1 h at room temperature (may be slightly longer than 2-3 h), wash the cells twice with 500 ul 0.1% PBST for 5 min each time.
2.5. Secondary antibody: Dilute the fluorescently labeled secondary antibody (abcam, ab150117) into blocking solution at a ratio of 1:200, add 100 ul per well, incubate for 1 h at room temperature (the time should not be too long), wash the cells twice with 0.1% PBST for 5 min each time, pay attention to the whole process. Protected from light.
2.6. Edu staining (Invitrogen C10338)
2.6.1 Prepare Click-iT® reaction cocktail according to Table 3. It was important to add the ingredients in the order listed in the table; otherwise, the reaction would not proceed optimally. Use the Click-iT® reaction cocktail within 15 minutes of preparation.
2.6.2 Add 0.1 mL of Click-iT® reaction cocktail to each well containing a coverslip. Rock the plate briefly to ensure that the reaction cocktail is distributed evenly over the coverslip.
2.6.3 Incubate the plate for 30 minutes at room temperature, protected from light.
2.6.4 Remove the reaction cocktail, then wash the cells twice with 0.1% PBST for 5 min each time.
2.7. DAPI staining: DAPI stain was diluted to PBS at a ratio of 1:1000, 100 ul per well, incubated for 30 min at room temperature, and the cells were washed twice with PBS for 5 min each.
We used Molecular Devices' Image Xpress Micro Confocal for high-throughput photo and data analysis.

[2] = system: Myocardial Infarction (left coronary artery ligation); assay: In vivo test, myocardial infarction (heart infarct) model; parameters: species or system C57/BL6 mice
Protocol: 6-week-old C57/BL6 mice were anesthetized with 1% isoflurane in a chamber. The mice were placed in a left supine position on a heating pad (37° C.), and the heart was exposed via thoracotomy at the fourth left intercostal space. The pericardium was then opened, and the left coronary artery was permanently ligated with a 7-0 suture. Ligation was considered successful when the left ventricle became pale. From one week after surgery, the compound L41 or control solvent were injected via tail vein every other day. The mice were then euthanized after 6 weeks of injection, and the hearts were subjected to histology.
2. Injury Region Division
The cardiac tissue regions used for image characterization are described as the whole heart, infarct zone (left ventricle free wall), border zone (left ventricle anterior and posterior walls), or distal zone (interventricular septum).
For histology studies, hearts were collected at the indicated time points. […]
Hearts were sectioned at a thickness of 8 μm, and slides were created with 5 sections per slide. […] Scar size was quantified by examining serial sections from the apex to the ligation site and calculating the average percent fibrotic area of the total area using Image J software based on Masson's trichrome staining.

[3] = target: T1, human GSK3 beta (Homo sapiens, UniProt P49841); assay: GSK3 beta enzyme assay (ADP-Glo); format: biochemical
T1 construct: Recombinant full-length human GSK3 beta (expressed in Sf9 insect cells with an N-terminal His tag); His tag (N); purchased SignalChem G09-10H; host or cells: Sf9 insect cells
T1 sequence (P49841 whole entry): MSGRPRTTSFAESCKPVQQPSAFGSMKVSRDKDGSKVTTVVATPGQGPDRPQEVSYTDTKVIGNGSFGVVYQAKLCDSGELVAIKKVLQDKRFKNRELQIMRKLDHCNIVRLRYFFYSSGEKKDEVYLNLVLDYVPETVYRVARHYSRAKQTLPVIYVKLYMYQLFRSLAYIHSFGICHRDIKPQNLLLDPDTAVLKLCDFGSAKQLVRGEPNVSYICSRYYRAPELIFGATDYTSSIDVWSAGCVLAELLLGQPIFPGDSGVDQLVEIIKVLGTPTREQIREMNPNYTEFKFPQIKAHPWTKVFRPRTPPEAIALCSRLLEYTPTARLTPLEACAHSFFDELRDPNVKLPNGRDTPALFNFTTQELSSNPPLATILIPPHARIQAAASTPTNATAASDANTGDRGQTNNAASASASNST
Protocol: 1. GSK3 Beta Enzyme Assay
The ability of compounds to inhibit human GSK3 beta kinase activities was determined using a commercially available ADP-Glo™ Kinase Assay kit (Promega, Cat #V9102) according to the manufacturer's protocol. The ADP-Glo™ Kinase Assay is a luminescent ADP detection assay that provides a universal, homogeneous, high-throughput screening method to measure kinase activity by quantifying the amount of ADP produced during a kinase reaction. The ADP-Glo™ Kinase Assay can be used to monitor the activity of virtually any ADP-generating enzymes (e.g., kinases or ATPases).
Recombinant full-length human GSK3 beta (expressed in Sf9 insect cells with an N-terminal His tag) was purchased from SignalChem (SignalChem, Cat #G09-10H). The GSK3 substrate peptide (sequence: […](pS)EDEEE) was purchased from SignalChem (SignalChem, Cat #G50-58). This assay, run in a 384-well plate format, is a generic method for measuring kinase activities using an ADP-Glo Kinase Assay Kit. The basic assay procedure involves two steps: (1) Enzymatic step: inhibitors are incubated with the kinase and then ATP (included in the ADP-Glo Kinase Assay Kit) and the GSK3 substrate peptide are added to start the enzymatic reaction; (2) Detection step: after the kinase reaction, first ADP-Glo™ Reagent is added to terminate the kinase reaction and deplete the remaining ATP. Second, the Kinase Detection Reagent is added to simultaneously convert ADP to ATP and allow the newly synthesized ATP to be measured using a luciferase/luciferin reaction. The light generated is measured using a luminometer.
Briefly, GSK3 beta (4 nM) in the enzymatic buffer solutions (40 mM Tris, 7.5, 20 mM MgCl2, 0.1 mg/ml BSA, 50 μM DTT) were mixed with various concentrations of inhibitors (dissolved in 100% DMSO). These solutions were incubated for 30 minutes at 25° C., and subsequently a mixture of substrate peptide and ATP was added with the final peptide and ATP concentrations at 13 μM and 25 μM, respectively. The final reaction mixture of enzyme-substrate-ATP-compound was incubated for 60 minutes at 25° C.
Afterwards ADP-Glo™ Reagent was added and the mixture was incubated at 25° C. for 60 minutes. Then Kinase Detection Reagent was added and the final mixture was incubated at 25° C. for 60 minutes. The luminescence signal of the final solution was measured on an Envision instrument (PerkinElmer). The percent (%) inhibition at each concentration of a compound is calculated relative to the luminescence signal in the Max and Min control wells contained within each assay plate. […] The concentrations and percent inhibition values for a test compound are plotted and the concentration of the compound required to achieve 50% inhibition (IC50) is determined with a four-parameter logistic dose response equation.

Row | Compound | activation at 1 µM [1] | activation at 3 µM [1] | activation at 10 µM [1] | myocyte growth / proliferation (EDU proliferation index), in words ([1]; neonatal rat cardiomyocytes, FIGS. 3-5) | cardiomyocyte proliferation in the heart infarct model ([2]; mouse, in vivo) | infarct size in the heart infarct model ([2]; tail vein injection every other day from one week after surgery, 6 weeks, FIG. 6 and 7) | IC50 ([3]; read-out: GSK3b IC50) | IC50 [3]
1 | O=C1NC(Nc2ccccc2)=N/C1=C\c1ccc2c(c1)OCO2 [Example L41, (Z)-5-(benzo[d][1,3]dioxol-5-ylmethylene)-2-(phenylamino)-3,5-dihydro-4H-imidazol-4-one] | < 10% | < 10% | < 10% | potent agonist for promoting myocyte growth or proliferation; also recorded: promotes myocyte growth; also recorded: promotes proliferation of neonatal rat cardiomyocytes; also recorded: potent activity | superior cardiomyocyte proliferation activity | reduction in infarct size | – | –
2 | O=C1/C(=C/c2ccc3c(c2)OCO3)N=C(N(Cc2ccccc2)c2ccccc2)N1Cc1ccccc1 [TJU-B076, (Z)-5-(benzo[d][1,3]dioxol-5-ylmethylene)-3-benzyl-2-(benzyl(phenyl)amino)-3,5-dihydro-4H-imidazol-4-one] | < 10% | < 10% | > 50% | – | – | – | > 10 µM | –
3 | CN(C1=N/C(=C\c2ccc3c(c2)OCO3)C(=O)N1)c1ccccc1 [TJU-B115, (Z)-5-(benzo[d][1,3]dioxol-5-ylmethylene)-2-(methyl(phenyl)amino)-3,5-dihydro-4H-imidazol-4-one] | < 10% | > 50% | 10 to 50% | – | – | – | > 10 µM | –
4 | CN1C(=O)/C(=C/c2ccc3c(c2)OCO3)N=C1N(C)c1ccccc1 [TJU-B116, (Z)-5-(benzo[d][1,3]dioxol-5-ylmethylene)-3-methyl-2-(methyl(phenyl)amino)-3,5-dihydro-4H-imidazol-4-one] | < 10% | < 10% | < 10% | – | – | – | > 10 µM | –
5 | CCN(C1=N/C(=C\c2ccc3c(c2)OCO3)C(=O)N1)c1ccccc1 [TJU-B182, (Z)-5-(benzo[d][1,3]dioxol-5-ylmethylene)-2-(ethyl(phenyl)amino)-3,5-dihydro-4H-imidazol-4-one] | 10 to 50% | 10 to 50% | 10 to 50% | – | – | – | > 10 µM | –
6 | CC(=O)N(C1=N/C(=C\c2ccc3c(c2)OCO3)C(=O)N1)c1ccccc1 [TJU-B183, (Z)—N-(4-(benzo[d][1,3]dioxol-5-ylmethylene)-5-oxo-4,5-dihydro-1H-imidazol-2-yl)-N-phenylacetamide] | < 10% | 10 to 50% | > 50% | – | – | – | – | > 10 µM
